From the NIST ThermoML archive (doi:10.1021/acs.jced.7b01125)
± gives the expanded uncertainty stated by the source.

Experiment: xn = mol fraction of the nth substance listed
Conditions: Gas, Buoyancy - hydrostatic balance with magnetic suspension - one sinker

[HH] [hydrogen] + C
Conditions | mass density [kg/m3]
324.96 K, 10000 kPa, x2 = 0.9 | 58.331 ± 0.044
324.96 K, 11000 kPa, x2 = 0.4997 | 36.202 ± 0.047
324.96 K, 11001 kPa, x2 = 0.9 | 64.438 ± 0.045
324.96 K, 12002 kPa, x2 = 0.4997 | 39.381 ± 0.051
324.96 K, 12003 kPa, x2 = 0.9 | 70.531 ± 0.045
324.96 K, 12999 kPa, x2 = 0.4997 | 42.522 ± 0.053
324.96 K, 13002 kPa, x2 = 0.9 | 76.592 ± 0.046
324.96 K, 14000 kPa, x2 = 0.4997 | 45.642 ± 0.056
324.96 K, 14001 kPa, x2 = 0.9499 | 88.324 ± 0.048
324.96 K, 14003 kPa, x2 = 0.9 | 82.625 ± 0.047
324.96 K, 14998 kPa, x2 = 0.4997 | 48.72 ± 0.06
324.96 K, 15000 kPa, x2 = 0.9 | 88.578 ± 0.047
324.96 K, 15003 kPa, x2 = 0.9499 | 94.801 ± 0.049
324.96 K, 15999 kPa, x2 = 0.4997 | 51.775 ± 0.063
324.96 K, 16001 kPa, x2 = 0.9 | 94.491 ± 0.048
324.96 K, 16003 kPa, x2 = 0.9499 | 101.187 ± 0.05
324.96 K, 16999 kPa, x2 = 0.4997 | 54.795 ± 0.066
324.96 K, 16999 kPa, x2 = 0.9 | 100.301 ± 0.049
324.96 K, 17994 kPa, x2 = 0.4997 | 57.761 ± 0.069
324.96 K, 18000 kPa, x2 = 0.9499 | 113.635 ± 0.05
324.96 K, 18006 kPa, x2 = 0.9 | 106.065 ± 0.049
324.96 K, 19001 kPa, x2 = 0.9 | 111.659 ± 0.051
324.96 K, 19002 kPa, x2 = 0.4997 | 60.728 ± 0.072
324.96 K, 19004 kPa, x2 = 0.9499 | 119.703 ± 0.051
324.96 K, 19631 kPa, x2 = 0.4997 | 62.562 ± 0.075
324.96 K, 19902 kPa, x2 = 0.9 | 116.626 ± 0.051
324.96 K, 19924 kPa, x2 = 0.9499 | 125.148 ± 0.054
324.97 K, 999 kPa, x2 = 0.9499 | 5.733 ± 0.038
324.97 K, 1999 kPa, x2 = 0.9499 | 11.594 ± 0.039
324.97 K, 2985 kPa, x2 = 0.9499 | 17.488 ± 0.039
324.97 K, 3998 kPa, x2 = 0.9499 | 23.665 ± 0.041
324.97 K, 4999 kPa, x2 = 0.9499 | 29.867 ± 0.042
324.97 K, 5999 kPa, x2 = 0.9499 | 36.165 ± 0.042
324.97 K, 6999 kPa, x2 = 0.9499 | 42.544 ± 0.043
324.97 K, 7999 kPa, x2 = 0.9499 | 49.004 ± 0.044
324.97 K, 10000 kPa, x2 = 0.9499 | 62.076 ± 0.046
324.97 K, 11004 kPa, x2 = 0.9499 | 68.681 ± 0.046
324.97 K, 12002 kPa, x2 = 0.9499 | 75.249 ± 0.047
324.97 K, 13002 kPa, x2 = 0.9499 | 81.811 ± 0.048
324.97 K, 17001 kPa, x2 = 0.9499 | 107.464 ± 0.049
349.95 K, 999 kPa, x2 = 0.9 | 5.061 ± 0.035
349.95 K, 999 kPa, x2 = 0.9499 | 5.309 ± 0.036
349.95 K, 1003 kPa, x2 = 0.4997 | 3.109 ± 0.029
349.95 K, 1999 kPa, x2 = 0.9 | 10.188 ± 0.035
349.95 K, 1999 kPa, x2 = 0.9499 | 10.702 ± 0.033
349.95 K, 2004 kPa, x2 = 0.4997 | 6.207 ± 0.029
349.95 K, 2985 kPa, x2 = 0.9 | 15.301 ± 0.036
349.95 K, 2999 kPa, x2 = 0.9499 | 16.173 ± 0.037
349.95 K, 3002 kPa, x2 = 0.4997 | 9.284 ± 0.03
349.95 K, 3999 kPa, x2 = 0.9 | 20.614 ± 0.037
349.95 K, 4000 kPa, x2 = 0.9499 | 21.712 ± 0.038
349.95 K, 4004 kPa, x2 = 0.4997 | 12.364 ± 0.031
349.95 K, 4999 kPa, x2 = 0.9 | 25.902 ± 0.038
349.95 K, 4999 kPa, x2 = 0.9499 | 27.309 ± 0.039
349.95 K, 5003 kPa, x2 = 0.4997 | 15.42 ± 0.032
349.95 K, 5998 kPa, x2 = 0.9 | 31.226 ± 0.039
349.95 K, 5998 kPa, x2 = 0.9499 | 32.957 ± 0.04
349.95 K, 6002 kPa, x2 = 0.4997 | 18.469 ± 0.034
349.95 K, 6998 kPa, x2 = 0.9 | 36.584 ± 0.039
349.95 K, 7000 kPa, x2 = 0.9499 | 38.671 ± 0.041
349.95 K, 7001 kPa, x2 = 0.4997 | 21.49 ± 0.036
349.95 K, 7998 kPa, x2 = 0.9499 | 44.399 ± 0.041
349.95 K, 7999 kPa, x2 = 0.9 | 41.97 ± 0.04
349.95 K, 8001 kPa, x2 = 0.4997 | 24.491 ± 0.037
349.95 K, 8997 kPa, x2 = 0.9 | 47.361 ± 0.041
349.95 K, 8997 kPa, x2 = 0.9499 | 50.163 ± 0.042
349.95 K, 9000 kPa, x2 = 0.4997 | 27.473 ± 0.039
349.95 K, 9996 kPa, x2 = 0.9499 | 55.938 ± 0.043
349.95 K, 9999 kPa, x2 = 0.4997 | 30.433 ± 0.042
349.95 K, 10000 kPa, x2 = 0.9 | 52.782 ± 0.041
349.95 K, 10999 kPa, x2 = 0.9499 | 61.741 ± 0.043
349.95 K, 11000 kPa, x2 = 0.9 | 58.181 ± 0.042
349.95 K, 11001 kPa, x2 = 0.4997 | 33.381 ± 0.044
349.95 K, 11995 kPa, x2 = 0.4997 | 36.281 ± 0.046
349.95 K, 11997 kPa, x2 = 0.9499 | 67.507 ± 0.044
349.95 K, 12003 kPa, x2 = 0.9 | 63.582 ± 0.042
349.95 K, 12996 kPa, x2 = 0.4997 | 39.178 ± 0.049
349.95 K, 12998 kPa, x2 = 0.9499 | 73.267 ± 0.044
349.95 K, 13000 kPa, x2 = 0.9 | 68.93 ± 0.043
349.95 K, 13993 kPa, x2 = 0.4997 | 42.035 ± 0.051
349.95 K, 13994 kPa, x2 = 0.9 | 74.229 ± 0.044
349.95 K, 13998 kPa, x2 = 0.9499 | 78.993 ± 0.044
349.95 K, 14997 kPa, x2 = 0.9499 | 84.669 ± 0.045
349.95 K, 14998 kPa, x2 = 0.9 | 79.534 ± 0.044
349.95 K, 15001 kPa, x2 = 0.4997 | 44.896 ± 0.054
349.95 K, 15997 kPa, x2 = 0.9 | 84.764 ± 0.045
349.95 K, 15998 kPa, x2 = 0.4997 | 47.697 ± 0.057
349.95 K, 15998 kPa, x2 = 0.9499 | 90.284 ± 0.045
349.95 K, 16997 kPa, x2 = 0.4997 | 50.454 ± 0.059
349.95 K, 16998 kPa, x2 = 0.9499 | 95.842 ± 0.046
349.95 K, 17000 kPa, x2 = 0.9 | 89.954 ± 0.045
349.95 K, 17989 kPa, x2 = 0.4997 | 53.192 ± 0.059
349.95 K, 17998 kPa, x2 = 0.9499 | 101.317 ± 0.047
349.95 K, 19002 kPa, x2 = 0.4997 | 55.94 ± 0.066
349.95 K, 19002 kPa, x2 = 0.9499 | 106.734 ± 0.047
349.95 K, 19350 kPa, x2 = 0.9 | 101.832 ± 0.047
349.95 K, 19873 kPa, x2 = 0.9499 | 111.352 ± 0.047
349.95 K, 19933 kPa, x2 = 0.4997 | 58.441 ± 0.066
